Data as given in ChEMBL document CHEMBL1201861, “Genomics of Drug Sensitity in Cancer screening data, Wellcome Trust Sanger Institute”.

Columns and labels:
Experiment in all cases: cells
[1] = system: COLO-829; assay type: functional, cell-based, Homo sapiens; conditions: Homo sapiens, COLO-829
Description: SANGER: Inhibition of human COLO-829 cell growth in a cell viability assay.

[2] = system: CP66-MEL; assay type: functional, cell-based, Homo sapiens; conditions: Homo sapiens, CP66-MEL;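 further: growth inhibition of CP66-MEL cells determined in a cell viability assay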
Description: SANGER: Inhibition of human CP66-MEL cell growth in a cell viability assay.

[3] = system: D-502MG; assay type: functional, cell-based, Homo sapiens; conditions: Homo sapiens, D-502MG
Description: SANGER: Inhibition of human D-502MG cell growth in a cell viability assay.

[4] = system: DOHH-2; assay type: functional, cell-based, Homo sapiens; conditions: Homo sapiens, DOHH-2;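 further: growth inhibition of human DOHH-2 cells, read out with a cell viability assay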
Description: SANGER: Inhibition of human DOHH-2 cell growth in a cell viability assay.

[5] = system: EM-2; assay type: functional, cell-based, Homo sapiens; conditions: Homo sapiens, EM-2;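 further: growth inhibition of EM-2 cells, read out with a cell viability assay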
Description: SANGER: Inhibition of human EM-2 cell growth in a cell viability assay.

[6] = system: ES1; assay type: functional, cell-based, Homo sapiens; conditions: Homo sapiens, ES1;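 further: growth inhibition of ES1 cells, read out with a cell viability assay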
Description: SANGER: Inhibition of human ES1 cell growth in a cell viability assay.

[7] = system: ES7; assay type: functional, cell-based, Homo sapiens; conditions: Homo sapiens, ES7;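 further: growth inhibition of cultured human ES7 cells, read out as cell viability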
Description: SANGER: Inhibition of human ES7 cell growth in a cell viability assay.

[8] = system: ES8; assay type: functional, cell-based, Homo sapiens; conditions: Homo sapiens, ES8;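 further: growth inhibition of human ES8 cells, read out with a cell viability assay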
Description: SANGER: Inhibition of human ES8 cell growth in a cell viability assay.

[9] = system: ETK-1; assay type: functional, cell-based, Homo sapiens; conditions: Homo sapiens, ETK-1;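 further: growth inhibition of human ETK-1 cells, read out with a cell viability assay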
Description: SANGER: Inhibition of human ETK-1 cell growth in a cell viability assay.

[10] = system: EW-13; assay type: functional, cell-based, Homo sapiens; conditions: Homo sapiens, EW-13;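 further: growth inhibition of EW-13 cells, read out with a cell viability assay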
Description: SANGER: Inhibition of human EW-13 cell growth in a cell viability assay.

[11] = system: EW-16; assay type: functional, cell-based, Homo sapiens; conditions: Homo sapiens, EW-16;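 further: growth inhibition of human EW-16 cells, read out as cell viability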
Description: SANGER: Inhibition of human EW-16 cell growth in a cell viability assay.

[12] = system: EW-3; assay type: functional, cell-based, Homo sapiens; conditions: Homo sapiens, EW-3;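 further: cell viability assay read-out, IC50 reflects inhibition of growth of the EW-3 cells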
Description: SANGER: Inhibition of human EW-3 cell growth in a cell viability assay.

[13] = system: GI-ME-N; assay type: functional, cell-based, Homo sapiens; conditions: Homo sapiens, GI-ME-N;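 further: growth inhibition of human GI-ME-N cells, read out with a cell viability assay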
Description: SANGER: Inhibition of human GI-ME-N cell growth in a cell viability assay.

[14] = system: GOTO; assay type: functional, cell-based, Homo sapiens; conditions: Homo sapiens, GOTO;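 further: growth inhibition of GOTO cells, read out by a cell viability assay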
Description: SANGER: Inhibition of human GOTO cell growth in a cell viability assay.

[15] = system: GR-ST; assay type: functional, cell-based, Homo sapiens; conditions: Homo sapiens, GR-ST
Description: SANGER: Inhibition of human GR-ST cell growth in a cell viability assay.

[16] = system: HCC1187; assay type: functional, cell-based, Homo sapiens; conditions: Homo sapiens, HCC1187;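 further: growth inhibition of HCC1187 cells, read out with a cell viability assay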
Description: SANGER: Inhibition of human HCC1187 cell growth in a cell viability assay.

[17] = system: HCE-4; assay type: functional, cell-based, Homo sapiens; conditions: Homo sapiens, HCE-4;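 further: cell viability assay measuring inhibition of growth in the human HCE-4 cell line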
Description: SANGER: Inhibition of human HCE-4 cell growth in a cell viability assay.

[18] = system: HH; assay type: functional, cell-based, Homo sapiens; conditions: Homo sapiens, HH
Description: SANGER: Inhibition of human HH cell growth in a cell viability assay.

[19] = system: HL-60; assay type: functional, cell-based, Homo sapiens; conditions: Homo sapiens, HL-60;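 further: growth inhibition of human HL-60 cells, read out with a cell viability assay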
Description: SANGER: Inhibition of human HL-60 cell growth in a cell viability assay.

[20] = system: HT-144; assay type: functional, cell-based, Homo sapiens; conditions: Homo sapiens, HT-144
Description: SANGER: Inhibition of human HT-144 cell growth in a cell viability assay.

[21] = system: IA-LM; assay type: functional, cell-based, Homo sapiens; conditions: Homo sapiens, IA-LM;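 further: cell viability assay measuring growth inhibition of human IA-LM cells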
Description: SANGER: Inhibition of human IA-LM cell growth in a cell viability assay.

[22] = system: IST-SL1; assay type: functional, cell-based, Homo sapiens; conditions: Homo sapiens, IST-SL1;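 further: growth inhibition of human IST-SL1 cells, read out with a cell viability assay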
Description: SANGER: Inhibition of human IST-SL1 cell growth in a cell viability assay.

[23] = system: JVM-3; assay type: functional, cell-based, Homo sapiens; conditions: Homo sapiens, JVM-3;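 further: growth inhibition of human JVM-3 cells, read out with a cell viability assay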
Description: SANGER: Inhibition of human JVM-3 cell growth in a cell viability assay.

[24] = system: K5; assay type: functional, cell-based, Homo sapiens; conditions: Homo sapiens, K5
Description: SANGER: Inhibition of human K5 cell growth in a cell viability assay.

[25] = system: KGN; assay type: functional, cell-based, Homo sapiens; conditions: Homo sapiens, KGN;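 further: growth inhibition of KGN cells, read out with a cell viability assay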
Description: SANGER: Inhibition of human KGN cell growth in a cell viability assay.

[26] = system: KM-H2; assay type: functional, cell-based, Homo sapiens; conditions: Homo sapiens, KM-H2;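 further: growth inhibition of KM-H2 cells, read out by a cell viability assay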
Description: SANGER: Inhibition of human KM-H2 cell growth in a cell viability assay.

[27] = system: LB1047-RCC; assay type: functional, cell-based, Homo sapiens; conditions: Homo sapiens, LB1047-RCC;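 further: inhibition of cell growth, determined with a cell viability assay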
Description: SANGER: Inhibition of human LB1047-RCC cell growth in a cell viability assay.

[28] = system: LB2241-RCC; assay type: functional, cell-based, Homo sapiens; conditions: Homo sapiens, LB2241-RCC;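 further: cell viability assay measuring how strongly the cultured human renal carcinoma line is prevented from growing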
Description: SANGER: Inhibition of human LB2241-RCC cell growth in a cell viability assay.

[29] = system: ML-2; assay type: functional, cell-based, Homo sapiens; conditions: Homo sapiens, ML-2;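 further: growth inhibition of ML-2 cells, measured with a cell viability readout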
Description: SANGER: Inhibition of human ML-2 cell growth in a cell viability assay.

[30] = system: NB6; assay type: functional, cell-based, Homo sapiens; conditions: Homo sapiens, NB6;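 further: growth inhibition of NB6 cells, read out by a cell viability assay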
Description: SANGER: Inhibition of human NB6 cell growth in a cell viability assay.

[31] = system: NCI-H1092; assay type: functional, cell-based, Homo sapiens; conditions: Homo sapiens, NCI-H1092;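 further: cell growth inhibition measured with a cell viability assay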
Description: SANGER: Inhibition of human NCI-H1092 cell growth in a cell viability assay.

[32] = system: NCI-H1648; assay type: functional, cell-based, Homo sapiens; conditions: Homo sapiens, NCI-H1648;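 further: cell viability assay measuring inhibition of NCI-H1648 cell growth, from the Sanger screening data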
Description: SANGER: Inhibition of human NCI-H1648 cell growth in a cell viability assay.

[33] = system: NCI-H1650; assay type: functional, cell-based, Homo sapiens; conditions: Homo sapiens, NCI-H1650;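 further: growth inhibition of human NCI-H1650 cells measured by a cell viability assay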
Description: SANGER: Inhibition of human NCI-H1650 cell growth in a cell viability assay.

[34] = system: NCI-H209; assay type: functional, cell-based, Homo sapiens; conditions: Homo sapiens, NCI-H209;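 further: growth inhibition of human NCI-H209 cells, measured by a cell viability assay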
Description: SANGER: Inhibition of human NCI-H209 cell growth in a cell viability assay.

[35] = system: NCI-H510A; assay type: functional, cell-based, Homo sapiens; conditions: Homo sapiens, NCI-H510A;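 further: growth inhibition of NCI-H510A cells, read out with a cell viability assay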
Description: SANGER: Inhibition of human NCI-H510A cell growth in a cell viability assay.

[36] = system: NCI-H82; assay type: functional, cell-based, Homo sapiens; conditions: Homo sapiens, NCI-H82;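 further: growth inhibition of NCI-H82 cells, measured with a cell viability readout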
Description: SANGER: Inhibition of human NCI-H82 cell growth in a cell viability assay.

[37] = system: NMC-G1; assay type: functional, cell-based, Homo sapiens; conditions: Homo sapiens, NMC-G1;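 further: growth inhibition of the NMC-G1 cell line, measured with a cell viability read-out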
Description: SANGER: Inhibition of human NMC-G1 cell growth in a cell viability assay.

[38] = system: RKO; assay type: functional, cell-based, Homo sapiens; conditions: Homo sapiens, RKO;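 further: growth inhibition of human RKO cells, read out with a cell viability assay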
Description: SANGER: Inhibition of human RKO cell growth in a cell viability assay.

[39] = system: SF-126; assay type: functional, cell-based, Homo sapiens; conditions: Homo sapiens, SF-126;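 further: growth inhibition of human SF126 cells, read out with a cell viability assay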
Description: SANGER: Inhibition of human SF126 cell growth in a cell viability assay.

[40] = system: SHP77; assay type: functional, cell-based, Homo sapiens, SHP-77; conditions: Homo sapiens, SHP77;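 further: growth inhibition of human SHP-77 cells measured by a cell viability assay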
Description: SANGER: Inhibition of human SHP-77 cell growth in a cell viability assay.

[41] = system: SK-N-DZ; assay type: functional, cell-based, Homo sapiens; conditions: Homo sapiens, SK-N-DZ;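 further: growth inhibition of the cancer cell line, read out through a viability assay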
Description: SANGER: Inhibition of human SK-N-DZ cell growth in a cell viability assay.

[42] = system: SW 962; assay type: functional, cell-based, Homo sapiens; conditions: Homo sapiens, SW 962;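 further: growth inhibition of human SW962 cells, read out by a cell viability assay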
Description: SANGER: Inhibition of human SW962 cell growth in a cell viability assay.

[43] = system: A388; assay type: functional, cell-based, Homo sapiens; conditions: Homo sapiens, A388;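 further: growth inhibition of human A388 cells, read out with a cell viability assay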
Description: SANGER: Inhibition of human A388 cell growth in a cell viability assay.

[44] = system: A4-Fuk; assay type: functional, cell-based, Homo sapiens; conditions: Homo sapiens, A4-Fuk;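 further: growth inhibition of A4-Fuk cells, read out by a cell viability assay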
Description: SANGER: Inhibition of human A4-Fuk cell growth in a cell viability assay.

[45] = system: A498; assay type: functional, cell-based, Homo sapiens; conditions: Homo sapiens, A498;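 further: growth inhibition of human A498 cells, read out with a cell viability assay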
Description: SANGER: Inhibition of human A498 cell growth in a cell viability assay.

[46] = system: ALL-PO; assay type: functional, cell-based, Homo sapiens; conditions: Homo sapiens, ALL-PO;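 further: growth inhibition of ALL-PO cells, read out by a cell viability assay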
Description: SANGER: Inhibition of human ALL-PO cell growth in a cell viability assay.

[47] = system: AM-38; assay type: functional, cell-based, Homo sapiens; conditions: Homo sapiens, AM-38;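 further: growth inhibition of AM-38 cells of human origin, read out by a cell viability assay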
Description: SANGER: Inhibition of human AM-38 cell growth in a cell viability assay.

[48] = system: Becker; assay type: functional, cell-based, Homo sapiens; conditions: Homo sapiens, Becker;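 further: growth inhibition of Becker cells, read out with a cell viability assay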
Description: SANGER: Inhibition of human Becker cell growth in a cell viability assay.

[49] = system: TE-9; assay type: functional, cell-based, Homo sapiens; conditions: Homo sapiens, TE-9;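 further: cell growth inhibition, measured with a cell viability readout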
Description: SANGER: Inhibition of human TE-9 cell growth in a cell viability assay.

[50] = system: TGW; assay type: functional, cell-based, Homo sapiens; conditions: Homo sapiens, TGW;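 further: growth inhibition of human TGW cells, read out with a cell viability assay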
Description: SANGER: Inhibition of human TGW cell growth in a cell viability assay.

With `COc1cc(-c2nn([C@H]3CC[C@H](N4CCN(C(C)=O)CC4)CC3)c3ncnc(N)c23)ccc1NC(=O)c1cc2ccccc2n1C` the IC50 [1] was greater than 5.12 µM, the IC50 [2] was greater than 5.12 µM and the IC50 [3] was greater than 5.12 µM. For the same molecule, the IC50 [4] was 0.0391 µM, the IC50 [5] was 0.337 µM and the IC50 [6] was greater than 5.12 µM. For the same molecule, the IC50 [7] was greater than 5.12 µM, the IC50 [8] was greater than 5.12 µM and the IC50 [9] was 0.349 µM. The IC50 [10] was greater than 5.12 µM, the IC50 [11] was 3.59 µM and the IC50 [12] was greater than 5.12 µM. The IC50 [13] was 2.29 µM, the IC50 [14] was greater than 5.12 µM and the IC50 [15] was greater than 5.12 µM. The IC50 [16] was greater than 5.12 µM, the IC50 [17] was 2.34 µM and the IC50 [18] was greater than 5.12 µM. It also gave an IC50 [19] greater than 5.12 µM, an IC50 [20] greater than 5.12 µM and an IC50 [21] greater than 5.12 µM. It also gave an IC50 [22] greater than 5.12 µM, an IC50 [23] greater than 5.12 µM and an IC50 [24] greater than 5.12 µM. The IC50 [25] was 0.887 µM, the IC50 [26] was greater than 5.12 µM and the IC50 [27] was 0.143 µM. It also gave an IC50 [28] greater than 5.12 µM, an IC50 [29] greater than 5.12 µM and an IC50 [30] greater than 5.12 µM. For the same molecule, the IC50 [31] was greater than 5.12 µM, the IC50 [32] was 0.387 µM and the IC50 [33] was greater than 5.12 µM. For the same molecule, the IC50 [34] was greater than 5.12 µM, the IC50 [35] was 4.76 µM and the IC50 [36] was greater than 5.12 µM. For the same molecule, the IC50 [37] was 0.573 µM, the IC50 [38] was 3.46 µM and the IC50 [39] was greater than 5.12 µM. It also gave an IC50 [40] greater than 5.12 µM, an IC50 [41] greater than 5.12 µM and an IC50 [42] greater than 5.12 µM. It also gave an IC50 [43] of 4.34 µM, an IC50 [44] greater than 5.12 µM and an IC50 [45] greater than 5.12 µM. The IC50 [46] was greater than 5.12 µM, the IC50 [47] was greater than 5.12 µM and the IC50 [48] was 4.21 µM. For the same molecule, the IC50 [49] was greater than 5.12 µM and the IC50 [50] was greater than 5.12 µM.
`OCCCNc1cc(-c2ccnc(Nc3cccc(Cl)c3)n2)ccn1` gave an IC50 [1] greater than 0.256 µM, an IC50 [2] greater than 0.256 µM and an IC50 [3] greater than 0.256 µM. For the same molecule, the IC50 [4] was 0.0408 µM, the IC50 [5] was 0.176 µM and the IC50 [6] was greater than 0.256 µM. For the same molecule, the IC50 [7] was greater than 0.256 µM, the IC50 [8] was greater than 0.256 µM and the IC50 [9] was 0.0138 µM. The IC50 [10] was greater than 0.256 µM, the IC50 [11] was 0.0328 µM and the IC50 [12] was greater than 0.256 µM. For the same molecule, the IC50 [13] was 0.105 µM, the IC50 [14] was 0.0749 µM and the IC50 [15] was 0.174 µM. It also gave an IC50 [16] greater than 0.256 µM, an IC50 [17] greater than 0.256 µM and an IC50 [18] of 0.0706 µM. The IC50 [19] was greater than 0.256 µM, the IC50 [20] was 0.0206 µM and the IC50 [21] was 0.0932 µM. It also gave an IC50 [22] of 0.147 µM, an IC50 [23] greater than 0.256 µM and an IC50 [24] of 0.0188 µM. The IC50 [25] was 0.0105 µM, the IC50 [26] was greater than 0.256 µM and the IC50 [27] was 0.0284 µM. The IC50 [28] was greater than 0.256 µM, the IC50 [29] was greater than 0.256 µM and the IC50 [30] was greater than 0.256 µM. For the same molecule, the IC50 [31] was 0.108 µM, the IC50 [32] was 0.189 µM and the IC50 [33] was greater than 0.256 µM. For the same molecule, the IC50 [34] was 0.135 µM, the IC50 [35] was greater than 0.256 µM and the IC50 [36] was greater than 0.256 µM. The IC50 [37] was 0.0323 µM, the IC50 [38] was 0.114 µM and the IC50 [39] was 0.134 µM. For the same molecule, the IC50 [40] was 0.155 µM, the IC50 [41] was greater than 0.256 µM and the IC50 [42] was 0.0451 µM. It also gave an IC50 [43] of 0.0477 µM, an IC50 [44] of 0.028 µM and an IC50 [45] greater than 0.256 µM. It also gave an IC50 [46] of 0.08 µM, an IC50 [47] greater than 0.256 µM and an IC50 [48] of 0.0479 µM. It also gave an IC50 [49] greater than 0.256 µM and an IC50 [50] of 0.0769 µM.
Molecule `Cc1ccc(-c2c(C(=O)CCl)n(CCCO)c3ncnc(N)c23)cc1` has an IC50 [1] greater than 4 µM, an IC50 [2] greater than 4 µM and an IC50 [3] greater than 4 µM. For the same molecule, the IC50 [4] was 2.7 µM, the IC50 [5] was greater than 4 µM and the IC50 [6] was greater than 4 µM. The IC50 [7] was greater than 4 µM, the IC50 [8] was greater than 4 µM and the IC50 [9] was greater than 4 µM. It also gave an IC50 [10] greater than 4 µM, an IC50 [11] greater than 4 µM and an IC50 [12] greater than 4 µM. For the same molecule, the IC50 [13] was 2.52 µM, the IC50 [14] was greater than 4 µM and the IC50 [15] was greater than 4 µM. The IC50 [16] was greater than 4 µM, the IC50 [17] was greater than 4 µM and the IC50 [18] was greater than 4 µM. For the same molecule, the IC50 [19] was greater than 4 µM, the IC50 [20] was 3.28 µM and the IC50 [21] was 3.21 µM. The IC50 [22] was greater than 4 µM, the IC50 [23] was greater than 4 µM and the IC50 [24] was greater than 4 µM. It also gave an IC50 [25] greater than 4 µM, an IC50 [26] greater than 4 µM and an IC50 [27] greater than 4 µM. The IC50 [28] was 0.699 µM, the IC50 [29] was greater than 4 µM and the IC50 [30] was greater than 4 µM. It also gave an IC50 [31] greater than 4 µM, an IC50 [32] greater than 4 µM and an IC50 [33] greater than 4 µM. The IC50 [34] was greater than 4 µM, the IC50 [35] was greater than 4 µM and the IC50 [36] was greater than 4 µM. It also gave an IC50 [37] greater than 4 µM, an IC50 [38] greater than 4 µM and an IC50 [39] greater than 4 µM. For the same molecule, the IC50 [40] was greater than 4 µM, the IC50 [41] was greater than 4 µM and the IC50 [42] was 3.66 µM. For the same molecule, the IC50 [43] was 2.19 µM, the IC50 [44] was greater than 4 µM and the IC50 [45] was greater than 4 µM. It also gave an IC50 [46] greater than 4 µM, an IC50 [47] greater than 4 µM and an IC50 [48] greater than 4 µM. It also gave an IC50 [49] greater than 4 µM and an IC50 [50] greater than 4 µM.
